Blank lines part the entries; values can stand above or below the compound they belong to. The source made the active and inactive calls. The rule behind the calls is not given here.
Legend:
[1] = molecular target: T1, High affinity 3',5'-cyclic-AMP phosphodiesterase 7A (Homo sapiens, UniProt Q13946); test: Inhibition of cloned human recombinant PDE7A assessed as [3H]cAMP hydrolysis by radiometric assay
[2] = Metabolic stability in human liver microsomes assessed as compound remaining after 60 mins; type: ADME, Microsome; conditions: read-out: Stability
Homo sapiens [3] = species: Homo sapiens; test: Selectivity ratio of IC50 for cloned human recombinant PDE4D to IC50 for cloned human recombinant PDE7A
[4] = Drug uptake in C57 mouse brain at 10 mg/kg, ip after 30 mins; type: ADME, organism-based; set-up: dose 10 mg/kg, route intraperitoneal; conditions: read-out: Drug uptake
[5] = Ratio of drug level in brain to plasma in C57 mouse at 10 mg/kg, ip after 30 mins; type: ADME, organism-based; set-up: dose 10 mg/kg, route intraperitoneal; conditions: read-out: BPR
[6] = molecular target: High affinity cAMP-specific and IBMX-insensitive 3',5'-cyclic phosphodiesterase 8A (Homo sapiens) (UniProt O60658); test: Inhibition of cloned human recombinant PDE8A1 assessed as [3H]cAMP hydrolysis at 10 uM by radiometric assay
[7] = molecular target: Dual specificity calcium/calmodulin-dependent 3',5'-cyclic nucleotide phosphodiesterase 1A (Homo sapiens) (UniProt P54750); test: Inhibition of cloned human recombinant PDE1A assessed as [3H]cAMP hydrolysis at 10 uM by radiometric assay
[8] = molecular target: cGMP-inhibited 3',5'-cyclic phosphodiesterase 3A (Homo sapiens) (UniProt Q14432); test: Inhibition of cloned human recombinant PDE3A assessed as [3H]cAMP hydrolysis at 10 uM by radiometric assay
Sequence of cGMP-inhibited 3',5'-cyclic phosphodiesterase 3A (Homo sapiens) (Q14432 whole entry): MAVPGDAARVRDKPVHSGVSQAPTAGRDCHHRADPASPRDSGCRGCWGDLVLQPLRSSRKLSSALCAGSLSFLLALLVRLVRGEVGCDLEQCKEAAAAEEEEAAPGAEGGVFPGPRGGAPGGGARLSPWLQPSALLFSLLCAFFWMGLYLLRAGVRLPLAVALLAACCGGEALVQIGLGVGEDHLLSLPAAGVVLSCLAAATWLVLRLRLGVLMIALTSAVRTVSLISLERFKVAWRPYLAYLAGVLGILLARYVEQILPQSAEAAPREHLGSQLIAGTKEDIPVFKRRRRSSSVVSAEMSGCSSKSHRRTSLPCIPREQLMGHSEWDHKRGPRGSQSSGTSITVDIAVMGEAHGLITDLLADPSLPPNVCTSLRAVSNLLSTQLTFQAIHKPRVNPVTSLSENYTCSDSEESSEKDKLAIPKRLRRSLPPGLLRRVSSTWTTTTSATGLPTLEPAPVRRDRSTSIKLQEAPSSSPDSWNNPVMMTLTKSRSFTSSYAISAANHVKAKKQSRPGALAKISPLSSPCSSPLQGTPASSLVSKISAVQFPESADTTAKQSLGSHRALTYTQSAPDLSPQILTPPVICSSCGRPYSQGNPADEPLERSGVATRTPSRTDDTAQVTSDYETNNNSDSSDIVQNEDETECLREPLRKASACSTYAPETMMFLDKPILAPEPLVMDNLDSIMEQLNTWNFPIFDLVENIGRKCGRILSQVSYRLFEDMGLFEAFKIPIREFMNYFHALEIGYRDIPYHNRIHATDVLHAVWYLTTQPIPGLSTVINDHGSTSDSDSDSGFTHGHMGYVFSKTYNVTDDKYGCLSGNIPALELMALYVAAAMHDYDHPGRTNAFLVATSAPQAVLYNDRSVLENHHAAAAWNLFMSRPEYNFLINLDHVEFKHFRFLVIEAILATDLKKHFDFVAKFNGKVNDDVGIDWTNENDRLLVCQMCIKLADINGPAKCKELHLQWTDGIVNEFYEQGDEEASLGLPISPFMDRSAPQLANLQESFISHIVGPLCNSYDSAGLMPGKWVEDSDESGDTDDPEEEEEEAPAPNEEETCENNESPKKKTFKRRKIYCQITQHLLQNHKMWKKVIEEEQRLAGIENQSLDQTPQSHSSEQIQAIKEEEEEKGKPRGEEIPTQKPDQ

[9] = Tmax in C57 mouse at 10 mg/kg, ip; type: ADME, organism-based; set-up: dose 10 mg/kg, route intraperitoneal; conditions: in vivo
[10] = molecular target: Dual 3',5'-cyclic-AMP and -GMP phosphodiesterase 11A (Homo sapiens) (UniProt Q9HCR9); test: Inhibition of cloned human recombinant PDE11A assessed as [3H]cAMP hydrolysis at 10 uM by radiometric assay
Sequence of Dual 3',5'-cyclic-AMP and -GMP phosphodiesterase 11A (Homo sapiens) (Q9HCR9 whole entry, looked up): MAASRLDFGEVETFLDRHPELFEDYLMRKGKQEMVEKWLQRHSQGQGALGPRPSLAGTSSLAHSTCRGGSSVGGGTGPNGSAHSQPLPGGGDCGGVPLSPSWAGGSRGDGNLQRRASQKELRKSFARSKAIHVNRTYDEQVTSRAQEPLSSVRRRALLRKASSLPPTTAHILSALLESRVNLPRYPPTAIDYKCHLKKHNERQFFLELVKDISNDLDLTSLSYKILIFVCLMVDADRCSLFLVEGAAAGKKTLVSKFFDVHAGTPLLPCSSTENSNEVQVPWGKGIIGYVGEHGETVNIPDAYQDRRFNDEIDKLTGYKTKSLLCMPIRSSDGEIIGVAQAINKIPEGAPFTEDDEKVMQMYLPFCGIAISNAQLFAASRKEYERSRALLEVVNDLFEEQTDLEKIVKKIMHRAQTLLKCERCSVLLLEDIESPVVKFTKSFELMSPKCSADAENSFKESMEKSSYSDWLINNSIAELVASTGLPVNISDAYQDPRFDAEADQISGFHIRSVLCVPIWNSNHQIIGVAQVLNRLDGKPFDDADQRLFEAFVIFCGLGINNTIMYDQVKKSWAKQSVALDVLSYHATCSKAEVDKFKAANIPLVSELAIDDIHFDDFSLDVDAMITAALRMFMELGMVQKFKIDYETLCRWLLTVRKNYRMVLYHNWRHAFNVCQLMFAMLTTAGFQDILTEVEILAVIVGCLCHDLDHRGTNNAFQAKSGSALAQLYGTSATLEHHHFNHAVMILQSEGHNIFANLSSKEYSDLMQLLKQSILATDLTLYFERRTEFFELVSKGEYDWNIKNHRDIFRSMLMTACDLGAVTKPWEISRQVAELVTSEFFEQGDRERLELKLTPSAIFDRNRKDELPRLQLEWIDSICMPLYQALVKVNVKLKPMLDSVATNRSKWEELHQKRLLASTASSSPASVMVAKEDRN

[11] = Cmax in C57 mouse at 10 mg/kg, ip; type: ADME, organism-based; set-up: dose 10 mg/kg, route intraperitoneal; conditions: in vivo
[12] = molecular target: T2, 3',5'-cyclic-AMP phosphodiesterase 4D (Homo sapiens, UniProt Q08499); test: Inhibition of cloned human recombinant PDE4D assessed as [3H]cAMP hydrolysis at 10 uM by radiometric assay
T2 sequence (Q08499 whole entry): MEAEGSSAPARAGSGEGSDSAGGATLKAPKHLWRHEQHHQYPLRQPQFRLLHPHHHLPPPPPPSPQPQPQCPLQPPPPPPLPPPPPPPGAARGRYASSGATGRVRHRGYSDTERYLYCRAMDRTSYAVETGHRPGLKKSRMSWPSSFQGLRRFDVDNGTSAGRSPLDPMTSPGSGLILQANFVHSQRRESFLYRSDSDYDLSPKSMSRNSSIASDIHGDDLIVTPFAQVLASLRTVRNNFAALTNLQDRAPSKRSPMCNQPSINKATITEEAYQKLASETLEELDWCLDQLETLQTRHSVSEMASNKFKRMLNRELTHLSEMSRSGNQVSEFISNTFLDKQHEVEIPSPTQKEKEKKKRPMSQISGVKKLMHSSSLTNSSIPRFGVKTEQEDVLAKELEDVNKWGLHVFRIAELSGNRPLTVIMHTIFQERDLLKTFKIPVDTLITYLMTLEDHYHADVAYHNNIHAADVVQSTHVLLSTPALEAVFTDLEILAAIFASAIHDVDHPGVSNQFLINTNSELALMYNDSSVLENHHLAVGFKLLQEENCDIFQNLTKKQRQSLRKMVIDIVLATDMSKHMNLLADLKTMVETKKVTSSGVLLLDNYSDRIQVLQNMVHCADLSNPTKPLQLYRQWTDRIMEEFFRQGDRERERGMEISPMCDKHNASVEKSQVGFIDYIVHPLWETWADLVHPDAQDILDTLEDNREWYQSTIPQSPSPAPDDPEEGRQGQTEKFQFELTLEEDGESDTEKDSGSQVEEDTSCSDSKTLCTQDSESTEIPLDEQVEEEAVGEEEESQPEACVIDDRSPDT

[13] = Metabolic stability in mouse liver microsomes assessed as compound remaining after 60 mins; type: ADME, Microsome; conditions: read-out: Stability
[14] = Plasma concentration in C57 mouse at 10 mg/kg, ip after 30 mins; type: ADME, organism-based; set-up: dose 10 mg/kg, route intraperitoneal
[15] = molecular target: cGMP-dependent 3',5'-cyclic phosphodiesterase (Homo sapiens) (UniProt O00408); test: Inhibition of cloned human recombinant PDE2A assessed as [3H]cAMP hydrolysis at 10 uM by radiometric assay
Sequence of cGMP-dependent 3',5'-cyclic phosphodiesterase (Homo sapiens) (O00408 whole entry): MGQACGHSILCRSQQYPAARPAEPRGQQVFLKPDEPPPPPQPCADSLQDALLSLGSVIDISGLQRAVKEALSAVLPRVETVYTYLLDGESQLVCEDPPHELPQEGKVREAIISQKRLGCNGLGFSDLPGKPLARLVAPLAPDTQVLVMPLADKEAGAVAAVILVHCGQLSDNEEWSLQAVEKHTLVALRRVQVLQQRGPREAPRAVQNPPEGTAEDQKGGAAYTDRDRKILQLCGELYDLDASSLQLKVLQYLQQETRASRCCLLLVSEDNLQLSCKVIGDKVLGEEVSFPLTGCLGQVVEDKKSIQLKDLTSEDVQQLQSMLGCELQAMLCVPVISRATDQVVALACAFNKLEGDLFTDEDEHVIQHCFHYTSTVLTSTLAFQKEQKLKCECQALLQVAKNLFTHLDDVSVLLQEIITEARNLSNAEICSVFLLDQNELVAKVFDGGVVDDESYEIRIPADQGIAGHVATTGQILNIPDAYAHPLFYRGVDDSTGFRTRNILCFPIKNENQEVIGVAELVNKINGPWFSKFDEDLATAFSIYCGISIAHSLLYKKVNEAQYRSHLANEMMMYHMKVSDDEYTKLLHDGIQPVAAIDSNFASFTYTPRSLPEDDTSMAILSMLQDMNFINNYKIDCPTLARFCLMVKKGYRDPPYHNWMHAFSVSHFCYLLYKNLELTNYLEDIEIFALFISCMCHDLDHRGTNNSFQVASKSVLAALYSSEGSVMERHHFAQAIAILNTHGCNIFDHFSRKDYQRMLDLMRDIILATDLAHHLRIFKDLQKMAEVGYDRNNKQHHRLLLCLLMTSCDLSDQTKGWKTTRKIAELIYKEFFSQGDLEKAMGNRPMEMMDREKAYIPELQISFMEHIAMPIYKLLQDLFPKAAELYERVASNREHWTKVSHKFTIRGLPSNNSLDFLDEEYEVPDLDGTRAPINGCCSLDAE

[16] = AUC in C57 mouse at 10 mg/kg, ip; type: ADME, organism-based; set-up: dose 10 mg/kg, route intraperitoneal; conditions: plasma
Homo sapiens [17] = species: Homo sapiens; test: Selectivity ratio of IC50 for cloned human recombinant PDE4D to IC50 for cloned human recombinant PDE7B
[18] = molecular target: cGMP-specific 3',5'-cyclic phosphodiesterase (Homo sapiens) (UniProt O76074); test: Inhibition of cloned human recombinant PDE5A assessed as [3H]cAMP hydrolysis at 10 uM by radiometric assay
[19] = molecular target: cAMP and cAMP-inhibited cGMP 3',5'-cyclic phosphodiesterase 10A (Homo sapiens) (UniProt Q9Y233); test: Inhibition of cloned human recombinant PDE10A assessed as [3H]cAMP hydrolysis at 10 uM by radiometric assay
[20] = molecular target: 3',5'-cyclic-AMP phosphodiesterase 7B (Homo sapiens, UniProt Q9NP56); test: Inhibition of cloned human recombinant PDE7B assessed as [3H]cAMP hydrolysis by radiometric assay
Sequence of 3',5'-cyclic-AMP phosphodiesterase 7B (Q9NP56 whole entry): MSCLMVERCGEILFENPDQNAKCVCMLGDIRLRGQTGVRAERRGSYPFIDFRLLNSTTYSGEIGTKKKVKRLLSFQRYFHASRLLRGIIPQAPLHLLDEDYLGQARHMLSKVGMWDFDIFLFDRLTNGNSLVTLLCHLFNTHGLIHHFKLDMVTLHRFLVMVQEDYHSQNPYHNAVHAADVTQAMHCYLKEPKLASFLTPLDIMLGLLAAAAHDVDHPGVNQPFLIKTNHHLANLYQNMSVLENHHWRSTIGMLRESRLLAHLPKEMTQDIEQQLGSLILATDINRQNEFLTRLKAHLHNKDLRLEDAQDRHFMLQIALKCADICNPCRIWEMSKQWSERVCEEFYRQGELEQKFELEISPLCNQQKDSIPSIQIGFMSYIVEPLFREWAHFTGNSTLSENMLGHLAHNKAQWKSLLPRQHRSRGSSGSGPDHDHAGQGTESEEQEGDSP

[21] = Metabolic stability in rat liver microsomes assessed as compound remaining after 60 mins; type: ADME, Microsome; conditions: read-out: Stability
[22] = molecular target: High affinity cGMP-specific 3',5'-cyclic phosphodiesterase 9A (Homo sapiens) (UniProt O76083); test: Inhibition of cloned human recombinant PDE9A2 assessed as [3H]cAMP hydrolysis at 10 uM by radiometric assay
[23] = molecular target: T2, 3',5'-cyclic-AMP phosphodiesterase 4D; test: Inhibition of cloned human recombinant PDE4D assessed as [3H]cAMP hydrolysis by radiometric assay
[24] = Ratio of drug level in brain to plasma in C57 mouse at 30 mg/kg, ip after 30 mins; type: ADME, organism-based; set-up: dose 30 mg/kg, route intraperitoneal; conditions: read-out: BPR
[25] = Drug uptake in C57 mouse brain at 30 mg/kg, ip after 30 mins; type: ADME, organism-based; set-up: dose 30 mg/kg, route intraperitoneal; conditions: read-out: Drug uptake
Mus musculus [26] = test: Neurotoxicity in C57BL/6 mouse assessed as potentiation of haloperidol-induced catalepsy at 1 to 10 mg/kg, ip administered 15 mins prior to haloperidol challenge measured at 0.5 to 1 hr post haloperidol challenge; type: toxicity, organism-based; set-up: route intraperitoneal; conditions: in vivo
[27] = Ratio of drug level in brain to plasma in C57 mouse at 100 mg/kg, ip after 30 mins; type: ADME, organism-based; set-up: dose 100 mg/kg, route intraperitoneal; conditions: read-out: BPR
Brain [28] = test: Free drug level in C57 mouse brain homogenate at 30 mg/kg, ip; type: ADME, organism-based; set-up: dose 30 mg/kg, route intraperitoneal; conditions: in vivo
[29] = Drug uptake in C57 mouse brain at 100 mg/kg, ip after 30 mins; type: ADME, organism-based; set-up: dose 100 mg/kg, route intraperitoneal; conditions: read-out: Drug uptake
[30] = molecular target: T3, High affinity 3',5'-cyclic-AMP phosphodiesterase 7A (Mus musculus, UniProt P70453); test: Inhibition of mouse PDE7A assessed as [3H]cAMP hydrolysis after 5 to 15 mins by scintillation counter
T3 sequence (P70453 whole entry): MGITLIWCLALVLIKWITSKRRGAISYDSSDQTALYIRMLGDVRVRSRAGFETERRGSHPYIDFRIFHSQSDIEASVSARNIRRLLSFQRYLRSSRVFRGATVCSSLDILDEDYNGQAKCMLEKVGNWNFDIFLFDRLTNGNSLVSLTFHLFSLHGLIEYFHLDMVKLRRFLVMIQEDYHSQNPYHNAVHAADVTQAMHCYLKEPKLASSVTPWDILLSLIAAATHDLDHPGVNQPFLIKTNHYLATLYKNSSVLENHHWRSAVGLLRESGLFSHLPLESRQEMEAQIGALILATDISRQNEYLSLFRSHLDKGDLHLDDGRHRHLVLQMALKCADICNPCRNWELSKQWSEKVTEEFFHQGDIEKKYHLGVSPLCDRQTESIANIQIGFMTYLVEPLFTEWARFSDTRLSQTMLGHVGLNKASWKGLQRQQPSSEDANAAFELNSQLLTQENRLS

Brain [31] = test: Free drug level in C57 mouse brain homogenate at 1 uM by high throughput dialysis method; type: ADME, tissue-based; conditions: in vivo
[32] = Cmax in C57 mouse at 30 mg/kg, ip; type: ADME, organism-based; set-up: dose 30 mg/kg, route intraperitoneal; conditions: in vivo
Brain [33] = test: Free drug level in C57 mouse brain homogenate at 100 mg/kg, ip; type: ADME, organism-based; set-up: dose 100 mg/kg, route intraperitoneal; conditions: in vivo
[34] = AUC in C57 mouse at 100 mg/kg, ip; type: ADME, organism-based; set-up: dose 100 mg/kg, route intraperitoneal; conditions: plasma
[35] = AUC in C57 mouse at 30 mg/kg, ip; type: ADME, organism-based; set-up: dose 30 mg/kg, route intraperitoneal; conditions: plasma
[36] = Tmax in C57 mouse at 100 mg/kg, ip; type: ADME, organism-based; set-up: dose 100 mg/kg, route intraperitoneal; conditions: in vivo
[37] = Plasma concentration in C57 mouse at 30 mg/kg, ip after 30 mins; type: ADME, organism-based; set-up: dose 30 mg/kg, route intraperitoneal
Mus musculus [38] = test: Neurotoxicity in C57BL/6 mouse assessed as induction of catalepsy at 30 mg/kg, ip measured at 0.5 to 1 hr; type: toxicity, organism-based; set-up: dose 30 mg/kg, route intraperitoneal; conditions: in vivo
Mus musculus [39] = test: Neurotoxicity in C57BL/6 mouse assessed as induction of catalepsy at 1 to 10 mg/kg, ip measured at 0.5 to 1 hr; type: toxicity, organism-based; set-up: route intraperitoneal; conditions: in vivo
[40] = Plasma concentration in C57 mouse at 100 mg/kg, ip after 30 mins; type: ADME, organism-based; set-up: dose 100 mg/kg, route intraperitoneal
Brain [41] = test: Free drug level in C57 mouse brain homogenate at 10 mg/kg, ip; type: ADME, organism-based; set-up: dose 10 mg/kg, route intraperitoneal; conditions: in vivo
Mus musculus [42] = test: Neurotoxicity in C57BL/6 mouse assessed as haloperidol-induced deffect in motor coordination at 3 mg/kg, ip administered 15 mins prior to haloperidol challenge measured at 0.5 to 1 hr post haloperidol challenge; type: toxicity, organism-based; set-up: dose 3 mg/kg, route intraperitoneal; conditions: in vivo
[43] = Tmax in C57 mouse at 30 mg/kg, ip; type: ADME, organism-based; set-up: dose 30 mg/kg, route intraperitoneal; conditions: in vivo
Mus musculus [44] = test: Antiparkinsonian activity in C57BL/6 mouse assessed as decrease in MPTP-induced rearing behavior impairment at 30 mg/kg, ip administered 15 mins on day 7 post MPTP challenge; type: functional, organism-based; set-up: dose 30 mg/kg
[45] = Cmax in C57 mouse at 100 mg/kg, ip; type: ADME, organism-based; set-up: dose 100 mg/kg, route intraperitoneal; conditions: in vivo
[46] = molecular target: T1, High affinity 3',5'-cyclic-AMP phosphodiesterase 7A; test: Inhibition of cloned human recombinant PDE7A assessed as [3H]cAMP hydrolysis at 1 uM by radiometric assay

T1 sequence (Q13946 whole entry): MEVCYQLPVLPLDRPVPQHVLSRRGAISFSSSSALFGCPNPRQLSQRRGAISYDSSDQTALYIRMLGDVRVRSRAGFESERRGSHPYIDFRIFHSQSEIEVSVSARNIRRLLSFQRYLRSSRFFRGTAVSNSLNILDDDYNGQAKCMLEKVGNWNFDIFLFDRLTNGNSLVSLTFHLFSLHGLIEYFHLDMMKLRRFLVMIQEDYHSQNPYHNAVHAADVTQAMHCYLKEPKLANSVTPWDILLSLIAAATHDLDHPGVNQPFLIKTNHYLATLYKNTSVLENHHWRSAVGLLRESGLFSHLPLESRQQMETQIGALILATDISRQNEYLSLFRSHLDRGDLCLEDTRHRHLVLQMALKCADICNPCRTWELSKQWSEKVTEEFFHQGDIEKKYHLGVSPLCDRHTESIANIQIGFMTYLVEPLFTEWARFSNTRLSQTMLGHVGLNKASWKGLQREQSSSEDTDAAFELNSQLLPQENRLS

IC50 [1]: 33 nM
SMILES: COc1cc(N2CCCC(O)CC2)ccc1-c1nc2c(C)nn(C3CCCCC3)c(=O)c2[nH]1 (centres undefined)

remaining at 1 h [2]: 90%
Ratio IC50 (Homo sapiens [3]): > 200
concentration at 0.5 h [4]: 39 ng/g
Kp at 0.5 h [5]: 0.09
inhibition [6]: 19%
inhibition [7]: 33%
inhibition [8]: 4%
IC50 [1]: 12 nM
Tmax [9]: 15 min
inhibition [10]: 24%
Cmax [11]: 570 ng/mL
inhibition [12]: 90%
remaining at 1 h [13]: 37%
concentration at 0.5 h [14]: 446 ng/mL
inhibition [15]: 28%
AUC [16]: 1370 ng·h/mL
Ratio IC50 (Homo sapiens [17]): > 150
inhibition [18]: 3%
inhibition [19]: 2%
IC50 [20]: 19 nM
remaining at 1 h [21]: 40%
inhibition [22]: 12%
IC50 [23]: 2900 nM
SMILES: COc1cc(N2CCCNCC2)ccc1-c1nc2c(C)nn(C3CCCCC3)c(=O)c2[nH]1

Kp at 0.5 h [24]: 3.43
concentration at 0.5 h [25]: 16000 ng/g
remaining at 1 h [2]: 43%
Ratio IC50 (Homo sapiens [3]): > 200
concentration at 0.5 h [4]: 1140 ng/g
Kp at 0.5 h [5]: 1.69
inhibition [6]: 0%
Kp at 0.5 h [27]: 3.05
Drug uptake(free) (Brain [28]): 91 nM
inhibition [7]: 37%
concentration at 0.5 h [29]: 135000 ng/g
IC50 [30]: 63 nM
inhibition [8]: 6%
Drug uptake(free) (Brain [31]): 0.2%
IC50 [1]: 31 nM
Cmax [32]: 6350 ng/mL
Drug uptake(free) (Brain [33]): 763 nM
AUC [34]: 168000 ng·h/mL
Tmax [9]: 15 min
AUC [35]: 5020 ng·h/mL
Tmax [36]: 30 min
concentration at 0.5 h [37]: 4680 ng/mL
inhibition [10]: 10%
Cmax [11]: 1480 ng/mL
inhibition [12]: 86%
concentration at 0.5 h [40]: 44200 ng/mL
remaining at 1 h [13]: 4%
concentration at 0.5 h [14]: 699 ng/mL
Drug uptake(free) (Brain [41]): 6 nM
inhibition [15]: 29%
AUC [16]: 792 ng·h/mL
Ratio IC50 (Homo sapiens [17]): > 150
inhibition [18]: 3%
inhibition [19]: 23%
IC50 [20]: 43 nM
Tmax [43]: 15 min
remaining at 1 h [21]: 68%
Cmax [45]: 44200 ng/mL
inhibition [22]: 9%
IC50 [23]: 6550 nM
SMILES: COc1cc(N)ccc1-c1nc2c(C)nn(C3CCCCC3)c(=O)c2[nH]1
Activity (Mus musculus [26]): Toxic
Activity (Mus musculus [38]): Toxic
Activity (Mus musculus [39]): Non-toxic
Activity (Mus musculus [42]): Toxic
Activity (Mus musculus [44]): inactive

IC50 [1]: 53 nM
SMILES: COc1cc(N2CC(O)C2)ccc1-c1nc2c(C)nn(C3CCCCC3)c(=O)c2[nH]1

IC50 [1]: 81 nM
SMILES: COc1cc(N2CCC(O)CC2)ccc1-c1nc2c(C)nn(C3CCCCC3)c(=O)c2[nH]1

IC50 [1]: 89 nM
SMILES: COc1cc(/C=C/C(N)=O)ccc1-c1nc2c(C)nn(C3CCCCC3)c(=O)c2[nH]1

IC50 [1]: 75 nM
inhibition [46]: 92%
SMILES: COc1cc(N2CCC(N)CC2)ccc1-c1nc2c(C)nn(C3CCCCCC3)c(=O)c2[nH]1
